In patent US20130267494A1, “1,4-OXAZEPANE DERIVATIVES” (priority 2010, published 2013):
Structures can show the parent of a compound that is named as a salt. Where two headings read alike, the source gives them in different places.

Columns and labels:
Assay type in all cases: cell-based
[1] = biological target: T1, human norepinephrine transporter (Homo sapiens, UniProt P23975); assay: Inhibitory action on human norepinephrine transporter ([3H]-norepinephrine uptake in CHO cells); details: relative to inhibitory activity of 10 μM DMI as 100%; for inhibition at 1 µM: CHO
T1 construct: expressed in transfected cells
T1 sequence (P23975 whole entry): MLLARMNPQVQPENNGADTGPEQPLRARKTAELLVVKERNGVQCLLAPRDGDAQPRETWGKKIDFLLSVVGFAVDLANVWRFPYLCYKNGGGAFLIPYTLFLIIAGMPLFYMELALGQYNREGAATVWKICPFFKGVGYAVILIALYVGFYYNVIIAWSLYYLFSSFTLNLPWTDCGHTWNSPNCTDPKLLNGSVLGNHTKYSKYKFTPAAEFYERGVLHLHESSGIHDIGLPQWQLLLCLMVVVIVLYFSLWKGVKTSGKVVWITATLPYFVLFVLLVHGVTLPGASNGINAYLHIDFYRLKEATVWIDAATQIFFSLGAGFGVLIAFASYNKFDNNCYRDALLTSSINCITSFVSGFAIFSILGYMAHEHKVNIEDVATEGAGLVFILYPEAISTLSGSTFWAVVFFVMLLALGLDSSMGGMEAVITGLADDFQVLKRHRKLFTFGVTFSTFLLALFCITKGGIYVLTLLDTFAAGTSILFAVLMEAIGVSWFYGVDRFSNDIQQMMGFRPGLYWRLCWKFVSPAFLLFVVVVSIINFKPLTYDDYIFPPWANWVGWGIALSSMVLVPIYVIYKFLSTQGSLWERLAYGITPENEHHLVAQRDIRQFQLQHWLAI
How it was run: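 Stably transfected CHO-K1 cells plated overnight, then given test compound and [3H]-norepinephrine (20 nM final, from 200 nM) in HEPES-buffered saline with 0.5% BSA for 45 min. After PBS washes, retained radioactivity counted by scintillation. Inhibition at 10 μM or 1 μM compound expressed relative to 10 μM DMI as 100%.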

[2] = biological target: T2, human dopamine transporter (Homo sapiens, UniProt Q01959); assay: Inhibitory action on human dopamine transporter ([3H]-dopamine uptake in CHO cells); details: compound 1 μM, relative to inhibitory activity of 100 μM Nomifensine as 100%; for inhibition at 1 µM: CHO, read-out: inhibitory rate (%)
T2 construct: expressed in transfected cells
T2 sequence (Q01959 whole entry): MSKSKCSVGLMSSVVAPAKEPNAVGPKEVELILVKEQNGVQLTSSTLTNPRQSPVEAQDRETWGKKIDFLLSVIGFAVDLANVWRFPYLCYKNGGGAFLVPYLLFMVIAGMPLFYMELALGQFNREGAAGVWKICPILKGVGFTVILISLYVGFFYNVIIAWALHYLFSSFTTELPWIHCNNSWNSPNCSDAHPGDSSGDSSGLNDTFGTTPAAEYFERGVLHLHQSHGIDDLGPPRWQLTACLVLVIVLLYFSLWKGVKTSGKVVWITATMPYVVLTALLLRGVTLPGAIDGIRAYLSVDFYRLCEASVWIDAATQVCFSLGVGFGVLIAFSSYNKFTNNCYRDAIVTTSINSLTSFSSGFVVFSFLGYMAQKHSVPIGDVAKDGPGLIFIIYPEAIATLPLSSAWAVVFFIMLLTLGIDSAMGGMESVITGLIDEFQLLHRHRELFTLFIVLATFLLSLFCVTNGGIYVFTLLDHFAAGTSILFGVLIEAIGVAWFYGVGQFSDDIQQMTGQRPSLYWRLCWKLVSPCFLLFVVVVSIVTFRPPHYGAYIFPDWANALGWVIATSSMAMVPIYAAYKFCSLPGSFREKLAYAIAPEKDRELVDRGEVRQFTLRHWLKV
How it was run: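 CHO-K1 cells stably expressing human dopamine transporter, exposed to compound at 10 μM or 1 μM in HEPES-buffered saline with 0.5% BSA. [3H]-dopamine uptake measured over 60 min by scintillation counting. Activity expressed relative to 100 μM nomifensine as 100%.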

[3] = biological target: T3, human serotonin transporter (Homo sapiens, UniProt P31645); assay: Inhibitory action on human serotonin transporter ([3H]-5-hydroxytryptamine uptake in CHO cells); details: compound 1 μM, relative to inhibitory activity of 10 μM Paroxetine as 100%; for inhibition at 1 µM: CHO, read-out: inhibitory rate (%)
T3 construct: expressed in transfected cells
T3 sequence (P31645 whole entry): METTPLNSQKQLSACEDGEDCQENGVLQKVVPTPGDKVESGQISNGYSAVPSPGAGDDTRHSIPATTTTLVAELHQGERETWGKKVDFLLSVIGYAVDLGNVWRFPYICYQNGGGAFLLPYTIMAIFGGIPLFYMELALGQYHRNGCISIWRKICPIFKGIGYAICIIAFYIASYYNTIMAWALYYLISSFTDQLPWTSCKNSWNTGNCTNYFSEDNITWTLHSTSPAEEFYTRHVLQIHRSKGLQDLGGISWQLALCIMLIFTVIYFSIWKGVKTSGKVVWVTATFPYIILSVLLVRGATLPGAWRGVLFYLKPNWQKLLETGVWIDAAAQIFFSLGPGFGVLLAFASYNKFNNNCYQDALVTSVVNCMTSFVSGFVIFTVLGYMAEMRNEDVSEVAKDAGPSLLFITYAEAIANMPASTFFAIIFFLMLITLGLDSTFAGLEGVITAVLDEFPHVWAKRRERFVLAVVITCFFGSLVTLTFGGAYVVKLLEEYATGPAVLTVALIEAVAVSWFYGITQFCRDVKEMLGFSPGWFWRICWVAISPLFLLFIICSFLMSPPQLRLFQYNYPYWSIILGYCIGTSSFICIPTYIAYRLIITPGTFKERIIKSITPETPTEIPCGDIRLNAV
How it was run: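 CHO-K1 cells stably expressing human SERT, plated overnight, took up [3H]-5-HT (diluted to 200 nM before a 1:10 addition) for 20 min in HEPES-buffered saline with glucose and 0.5% BSA; radioactivity counted by scintillation. Compounds at 10 μM or 1 μM, activity expressed relative to 10 μM paroxetine set as 100%.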

[4] = read-out: inhibitory rate (%), compound 1 μM
[5] = compound 1 μM, read-out: inhibitory rate (%)

Structure (SMILES)	inhibition at 1 µM [2] [%]	inhibition at 1 µM [3] [%]	inhibition at 1 µM [1, 5] [%]	inhibitory rate (%) ([1]; compound 1 μM)	inhibitory rate (%) [2] [%]	inhibitory rate (%) [3] [%]	inhibition at 1 µM [1, 4] [%]
OCC1CNCCOC1c1ccc(Cl)c(Cl)c1 (stereo not drawn) [Example 49, [(6R*,7R*)-7-(3,4-dichlorophenyl)-1,4-oxazepan-6-yl]methanol monohydrochloride (retention time long)]	–	–	–	98	41	87	–
OC[C@@H]1CNCCO[C@H]1c1ccc(Cl)c(Cl)c1 [Example 72, [(6S,7R)-7-(3,4-dichlorophenyl)-1,4-oxazepan-6-yl]methanol monohydrochloride]	41	90	–	–	–	–	95
OC[C@H]1CNCCO[C@@H]1c1ccc(Cl)c(Cl)c1 [Example 73, [(6R,7S)-7-(3,4-dichlorophenyl)-1,4-oxazepan-6-yl]methanol monohydrochloride]	64	97	–	–	–	–	98
O=c1[nH]c(-c2ccc(OC[C@@H]3CNCCO[C@H]3c3ccc(Cl)c(Cl)c3)nc2)no1 [Example 87, 3-(6-{[(6S,7R)-7-(3,4-dichlorophenyl)-1,4-oxazepan-6-yl]methoxy}pyridin-3-yl)-1,2,4-oxadiazol-5(4H)-one monohydrochloride]	20	96	108	–	–	–	–
O=C(NC[C@@H]1CNCCO[C@H]1c1ccc(Cl)c(Cl)c1)c1ccccc1 [Example 126, N-{[(6S,7R)-7-(3,4-dichlorophenyl)-1,4-oxazepan-6-yl]methyl}benzamide monohydrochloride]	27	97	103	–	–	–	–
O=C(NC[C@@H]1CNCCO[C@H]1c1ccc(Cl)c(Cl)c1)c1cccc(-c2noc(=O)[nH]2)c1 [Example 142, N-{[(6S,7R)-7-(3,4-dichlorophenyl)-1,4-oxazepan-6-yl]methyl}-3-(5-oxo-4,5-dihydro-1,2,4-oxadiazol-3-yl)benzamide monohydrochloride]	4	95	100	–	–	–	–
O=C(NC[C@@H]1CNCCO[C@H]1c1ccc(Cl)c(Cl)c1)c1cc(-c2noc(=O)[nH]2)ccn1 [Example 146, N-{[(6S,7R)-7-(3,4-dichlorophenyl)-1,4-oxazepan-6-yl]methyl}-4-(5-oxo-4,5-dihydro-1,2,4-oxadiazol-3-yl)pyridine-2-carboxamide monohydrochloride]	47	100	101	–	–	–	–
NC(=O)NC[C@@H]1CNCCO[C@H]1c1ccc(Cl)c(Cl)c1 [Example 152, 1-{[(6S,7R)-7-(3,4-dichlorophenyl)-1,4-oxazepan-6-yl]methyl}urea monofumarate]	59	89	–	–	–	–	95
NC(=O)NC[C@H]1CNCCO[C@@H]1c1ccc(Cl)c(Cl)c1 [Example 153, 1-{[(6R,7S)-7-(3,4-dichlorophenyl)-1,4-oxazepan-6-yl]methyl}urea monofumarate]	49	93	–	–	–	–	95
O=c1nc(-c2ccccc2S(=O)(=O)C[C@@H]2CNCCO[C@H]2c2ccc(Cl)c(Cl)c2)[nH]o1 [Example 167, 3-[2-({[(6R,7R)-7-(3,4-dichlorophenyl)-1,4-oxazepan-6-yl]methyl}sulfonyl)phenyl]-1,2,4-oxadiazol-5(2H)-one monohydrochloride]	88	93	103	–	–	–	–
O=C(O)c1cccnc1NC[C@@H]1CNCCO[C@H]1c1ccc(Cl)c(Cl)c1 [Example 176, 2-({[(6S,7R)-7-(3,4-dichlorophenyl)-1,4-oxazepan-6-yl]methyl}amino)pyridine-3-carboxylic acid monohydrochloride]	20	80	101	–	–	–	–
O=c1[nH]c(-c2csc(C[C@@H]3CNCCO[C@H]3c3ccc(Cl)c(Cl)c3)n2)no1 [Example 199, 3-(2-{[(6R,7R)-7-(3,4-dichlorophenyl)-1,4-oxazepan-6-yl]methyl}-1,3-thiazol-4-yl)-1,2,4-oxadiazol-5(4H)-one monohydrochloride]	66	100	99	–	–	–	–
O=c1[nH]c(-c2ccnn(C[C@@H]3CNCCO[C@H]3c3ccc(Cl)c(Cl)c3)c2=O)no1 [Example 209, 2-{[(6S,7R)-7-(3,4-dichlorophenyl)-1,4-oxazepan-6-yl]methyl}-4-(5-oxo-4,5-dihydro-1,2,4-oxadiazol-3-yl)pyridazin-3(2H)-one monohydrochloride]	71	97	–	–	–	–	101

Continued, in another order:

inhibition at 1 µM [2] [%]	inhibition at 1 µM [3] [%]	inhibition at 1 µM [1, 5] [%]	Structure (SMILES)	inhibitory rate (%) ([1]; compound 1 μM)	inhibitory rate (%) [2] [%]	inhibitory rate (%) [3] [%]	inhibition at 1 µM [1, 4] [%]
86	97	96	CS(=O)(=O)C[C@@H]1CNCCO[C@H]1c1ccc(Cl)c(Cl)c1 [Example 92, (6R,7R)-7-(3,4-dichlorophenyl)-6-[(methylsulfonyl)methyl]-1,4-oxazepane monohydrochloride]	–	–	–	–
96	97	96	CS(=O)(=O)C[C@H]1CNCCO[C@@H]1c1ccc(Cl)c(Cl)c1 [Example 93, (6S,7S)-7-(3,4-dichlorophenyl)-6-[(methylsulfonyl)methyl]-1,4-oxazepane monohydrochloride]	–	–	–	–
94	99	98	CC(=O)N(C)C[C@@H]1CNCCO[C@H]1c1ccc(Cl)c(Cl)c1 [Example 99, N-{[(6S,7R)-7-(3,4-dichlorophenyl)-1,4-oxazepan-6-yl]methyl}-N-methylacetamide monohydrochloride]	–	–	–	–
59	94	99	CS(=O)(=O)CC(=O)NC[C@@H]1CNCCO[C@H]1c1ccc(Cl)c(Cl)c1 [Example 114, N-{[(6S,7R)-7-(3,4-dichlorophenyl)-1,4-oxazepan-6-yl]methyl}-2-(methylsulfonyl)acetamide monohydrochloride]	–	–	–	–
66	99	98	CS(=O)(=O)CC(=O)NC[C@H]1CNCCO[C@@H]1c1ccc(Cl)c(Cl)c1 [Example 115, N-{[(6R,7S)-7-(3,4-dichlorophenyl)-1,4-oxazepan-6-yl]methyl}-2-(methylsulfonyl)acetamide monohydrochloride]	–	–	–	–
99	99	101	CNC(=O)N(CCO)C[C@@H]1CNCCO[C@H]1c1ccc(Cl)c(Cl)c1 [Example 160, 1-{[(6S,7R)-7-(3,4-dichlorophenyl)-1,4-oxazepan-6-yl]methyl}-1-(2-hydroxyethyl)-3-methylurea monohydrochloride]	–	–	–	–
39	87	100	O=C(O)c1ccnn1C[C@@H]1CNCCO[C@H]1c1ccc(Cl)c(Cl)c1 [Example 181, 1-{[(6S,7R)-7-(3,4-dichlorophenyl)-1,4-oxazepan-6-yl]methyl}-1H-pyraole-5-carboxylic acid monohydrochloride]	–	–	–	–
53	86	101	Cc1cc(C(=O)O)nn1C[C@@H]1CNCCO[C@H]1c1ccc(Cl)c(Cl)c1 [Example 187, 1-{[(6S,7R)-7-(3,4-dichlorophenyl)-1,4-oxazepan-6-yl]methyl}-5-methyl-1H-pyrazole-3-carboxylic acid monohydrochloride]	–	–	–	–
